Laboratory results from patent US8710080B2, “Prodrugs of [4 [4-(5-Aminomethyl-2-fluoro-phenyl)-piperidin-1-yl]-(1H-pyrrolo-pyridin-yl)-methanones and synthesis thereof” (Sanofi, priority 2009, dated 2014).
Counter-ions that a name gives are not always drawn.

What was measured:
beta-Tryptase = target: T1, beta-Tryptase (Homo sapiens, UniProt Q15661); assay: beta-Tryptase inhibition, chromogenic enzyme assay (S2366 substrate); assay type: biochemical; conditions: activity of parent drug against beta-Tryptase; Ki calculated from IC50
T1 construct: host or cells: yeast cells
T1 sequence (Q15661 31-275): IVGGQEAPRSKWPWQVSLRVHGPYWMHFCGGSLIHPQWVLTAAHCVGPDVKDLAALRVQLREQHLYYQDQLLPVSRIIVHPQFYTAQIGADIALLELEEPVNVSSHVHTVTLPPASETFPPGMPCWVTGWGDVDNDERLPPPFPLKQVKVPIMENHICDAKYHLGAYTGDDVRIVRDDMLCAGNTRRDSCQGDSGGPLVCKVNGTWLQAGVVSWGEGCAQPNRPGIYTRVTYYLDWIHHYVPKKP
Text: Inhibition of this catalytic activity may be measured by the in vitro enzyme assay and the cellular assay.
Tryptase inhibition activity is confirmed using either isolated human lung tryptase or recombinant human beta tryptase expressed in yeast cells. Essentially equivalent results are obtained using isolated native enzyme or the expressed enzyme. The assay procedure employs a 96 well microplate (Costar 3590) using L-pyroglutamyl-L-prolyl-L-arginine-para-nitroanilide (S2366: Quadratech) as substrate (essentially as described by McEuen et. al. Biochem Pharm, 1996, 52, pages 331-340). Assays are performed at room temperature using 0.5 mM substrate (2×Km) and the microplate is read on a microplate reader (Beckman Biomek Plate reader) at 405 nm wavelength.
Materials and Methods for Tryptase Primary Screen (Chromogenic Assay)
S2366 (Stock solutions of 2.5 mM).
Purified recombinant beta Tryptase Stocks of 310 μg/mL. […]
The protocol is essentially the same as above except that the compound is added in duplicates at the following final concentrations: 0.01, 0.03, 0.1, 0.3, 1, 3, 10 μM (All dilutions carried out manually). […] From the IC50 value, the Ki can be calculated using the following formula: Ki=IC50/(1+[Substrate]/Km).

[1] = Rat plasma stability (incubation in rat plasma, LC-MS/MS); assay type: in vitro ADME; conditions: 100 ng/mL, 37° C.
Protocol: The rat plasma stability of Example 1 was tested by incubation of the compound in rat plasma at 100 ng/mL followed by LC-MS/MS bioanalysis to measure remaining parent compound relative to the time zero condition (no incubation). Concentrations of 1 remaining at 1 and 4 hr after incubation at 37° C. were 19% and 0%, indicating 1 was very unstable under these conditions. Since 1 was designed as a prodrug, plasma instability is a desirable attribute.

SMILES	Ki (beta-Tryptase) [nM]	Rat plasma stability (in words) [1]	Concentration remaining relative to time zero ([1]; 1 hr incubation) [%]	Concentration remaining relative to time zero ([1]; 4 hr incubation) [%]
COCCn1cc(C(=O)N2CCC(c3cc(CN)ccc3F)CC2)c2c(OC(F)(F)F)ccc(F)c21 [Parent of 4, [4-(5-aminomethyl-2-fluoro-phenyl)-piperidin-1-yl]-[7-fluoro-1-(2-methoxy-ethyl)-4-trifluoromethoxy-1H-indol-3-yl]-methanone hydrochloride]	38			
COCCn1cc(C(=O)N2CCC(c3cc(CN)ccc3F)CC2)c2c(C(=O)N3CCOCC3)cccc21 [Parent of 1, [4-(5-Aminomethyl-2-fluoro-phenyl)-piperidin-1-yl]-[1-(2-methoxy-ethyl)-4-(morpholine-4-carbonyl)-1H-indol-3-yl]-methanone hydrochloride]	29			
COCCn1cc(C(=O)N2CCC(c3cc(CNC(=O)CNC(=O)[C@@H](N)C(C)C)ccc3F)CC2)c2c(C(=O)N3CCOCC3)cccc21.Cl [Example 1, (S)-2-Amino-N-[(4-fluoro-3-{1-[1-(2-methoxy-ethyl)-4-(morpholine-4-carbonyl)-1H-indole-3-carbonyl]-piperidin-4-yl}-benzylcarbamoyl)-methyl]-3-methyl-butyramide hydrochloride]		very unstable	19	0
